Results taken from publication PMC9865645, “The Impact of N^ε-Acryloyllysine Piperazides on the Conformational Dynamics of Transglutaminase 2” (International Journal of Molecular Sciences, 2023).

Target: T1, hTGase 2 (Homo sapiens, UniProt P21980)
T1 construct: purchased Zedira (Darmstadt, Germany) T022, lot 0716a
T1 sequence (P21980 1-687): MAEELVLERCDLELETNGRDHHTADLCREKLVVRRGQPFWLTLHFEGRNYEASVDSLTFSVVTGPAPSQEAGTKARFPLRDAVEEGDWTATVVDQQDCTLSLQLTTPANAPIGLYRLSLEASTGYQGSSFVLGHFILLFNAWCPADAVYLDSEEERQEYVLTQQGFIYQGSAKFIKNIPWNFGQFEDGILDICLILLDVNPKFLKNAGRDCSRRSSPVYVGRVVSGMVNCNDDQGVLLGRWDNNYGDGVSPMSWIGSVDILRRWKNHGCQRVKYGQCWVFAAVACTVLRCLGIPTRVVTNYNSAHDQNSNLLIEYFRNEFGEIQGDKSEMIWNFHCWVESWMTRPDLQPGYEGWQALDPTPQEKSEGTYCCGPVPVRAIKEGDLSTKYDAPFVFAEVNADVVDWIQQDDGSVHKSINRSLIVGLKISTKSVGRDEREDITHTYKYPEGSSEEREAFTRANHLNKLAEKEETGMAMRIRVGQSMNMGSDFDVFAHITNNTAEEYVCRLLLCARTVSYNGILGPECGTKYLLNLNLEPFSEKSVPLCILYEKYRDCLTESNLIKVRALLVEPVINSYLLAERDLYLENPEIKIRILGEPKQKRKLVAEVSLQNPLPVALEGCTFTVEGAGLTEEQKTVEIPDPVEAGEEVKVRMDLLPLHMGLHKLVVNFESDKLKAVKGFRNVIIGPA
Assay: switchSENSE static mode (fluorescence proximity sensing): binding kinetics of GTPγS to hTGase 2-dsDNA lever
Settings: for koff / kon: 20 nM GTPγS, best-fit ± standard error; for Kd: quotient koff/kon
Procedure: The switchSENSE® experiments were performed with a DRX^2 (Dynamic Biosensors, excitation 600–630 nm, emission 650–686 nm). All experiments were performed in TE40 (10 mM TRIS pH 7.4, 40 mM NaCl, 50 µM EDTA, 50 µM EGTA, 100 µM TCEP, 0.05% Tween 20) when not explicitly stated otherwise. For the dynamic mode measurements, the standard operation procedures as described in [56] were applied. For measurements of the kinetics of the interaction of both GTPγS and CaCl2 with hTGase 2, firstly, the ssDNA-hTGase 2 conjugate was hybridized for 360 s to the ssDNA capture strand on the gold microelectrodes of the chip. With 500 nM, the conjugate concentration was chosen relatively high to achieve full coverage of the electrodes. Secondly, 1000 µL of 20 nM GTPγS in TE40 were flushed over the electrodes, followed by about 4000 µL of TE40 (2000 µL/min), to obtain access to the association as well as the dissociation, respectively. Changes in the fluorescence intensity during the GTPγS interaction were recorded using fluorescence proximity sensing (static mode).
The formation of the protein–ligand complex of GTPγS and hTGase 2 can be represented by the reaction equation expressed by Equation (1). (1) P+L kon⇌koff PL
The concentration of the protein–ligand complex, [PL] , at a certain time of association ta is [PL]a . At the beginning of the association, there is no surface-bound complex present, i.e., [PL]=0 , and the ligand concentration is assumed to be constant at [L]=cGTPγS . This neglects diffusion limitation by assuming continuous replacement of the medium at the electrode surface in the microfluidic channel. Thus, the time-dependent equilibrium fraction reached at the association time ta can be expressed by Equation (2). For derivation, see Equations (S1) to (S5) in Supplementary Materials. (2) [PL]a/[PL]∞=1−e^−ka·ta
In Equation (2), [PL]∞ is the equilibrium concentration of the protein–ligand complex, and ka is the apparent rate constant in the association experiment, defined by Equation (3). (3) ka=cGTPγS kon+koff
During the dissociation, the concentration of the free ligand is assumed to be constantly zero. Consequently, Equation (6) should be valid (for derivation, see Equations (S7) to (S10) in Supplementary Materials). (6) [PL]d/[PL]d,0=e^−koff·td
Combining Equations (6) and (7), the time-dependent fluorescence intensity during the dissociation is given by Equation (8). (8) Fd=(Fd,s−Fd,e)(e^−koff·td)+Fd,e
Equations (5) and (8) were fitted to the measured fluorescence intensities of the association and dissociation experiments with 20 nM GTPγS, respectively. This was performed by a damped Gauss–Newton algorithm (see Equations (S12) and (S13) in Supplementary Materials) to determine the best-fit parameters, and consequently, kon and koff. The quotient koff/kon is the dissociation constant, Kd. Additionally, the standard errors of these parameters were estimated (Equations (S14) to (S21) in Supplementary Materials).

[1] = His-tag-directed labeling of hTGase 2
[2] = non-directed labeling of hTGase 2

Q: Which results are given for `Nc1nc2c(ncn2[C@@H]2O[C@H](COP(=O)(O)OP(=O)(O)OP(O)(O)=S)[C@@H](O)[C@H]2O)c(=O)[nH]1` [GTPγS]?
A: koff [1]: 1.9 ± 0.5 10^−2 s^−1; kon [1]: 16 ± 2 10^6 M^−1 s^−1; Kd [1]: 1.2 ± 0.4 nM; koff [2]: 1.6 ± 0.6 10^−2 s^−1; kon [2]: 17 ± 4 10^6 M^−1 s^−1; Kd [2]: 1 ± 0.4 nM
